ChEMBL document CHEMBL1909046, “DrugMatrix in vitro pharmacology data”

Assays:
Calcitonin receptor = biological target: T1, Calcitonin receptor (Homo sapiens, UniProt P30988); format: cell membranes, Membrane; conditions: t47d
T1 sequence (P30988 whole entry): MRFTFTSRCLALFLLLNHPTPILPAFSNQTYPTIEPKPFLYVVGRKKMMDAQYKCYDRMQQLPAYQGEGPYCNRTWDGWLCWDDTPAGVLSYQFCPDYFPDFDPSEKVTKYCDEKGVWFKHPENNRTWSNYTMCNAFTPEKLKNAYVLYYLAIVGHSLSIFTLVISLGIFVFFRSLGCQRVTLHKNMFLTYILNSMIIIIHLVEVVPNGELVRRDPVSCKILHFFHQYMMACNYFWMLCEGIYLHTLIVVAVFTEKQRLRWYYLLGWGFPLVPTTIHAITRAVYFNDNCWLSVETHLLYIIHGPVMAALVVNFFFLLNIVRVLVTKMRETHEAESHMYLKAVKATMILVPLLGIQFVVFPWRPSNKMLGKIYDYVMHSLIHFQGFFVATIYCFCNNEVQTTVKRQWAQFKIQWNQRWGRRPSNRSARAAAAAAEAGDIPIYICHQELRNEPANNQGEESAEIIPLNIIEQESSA

Leukotriene C4 synthase = biological target: T2, Leukotriene C4 synthase (Cavia porcellus, UniProt A6XA80); format: tissue-based, Lung;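 note: enzyme inhibition assay of leukotriene C4 synthase, using LTA4 as the substrate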
T2 sequence (A6XA80 whole entry): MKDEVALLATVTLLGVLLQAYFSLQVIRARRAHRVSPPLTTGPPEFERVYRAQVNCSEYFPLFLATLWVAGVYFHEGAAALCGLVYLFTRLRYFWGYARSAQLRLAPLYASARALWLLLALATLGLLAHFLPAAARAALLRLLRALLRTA

Melanocortin receptor 5 = Melanocortin receptor 5 (Homo sapiens, UniProt P33032); format: cell membranes, HEK293, Membrane; conditions: hek293
Melanocortin receptor 5, sequence (P33032 whole entry): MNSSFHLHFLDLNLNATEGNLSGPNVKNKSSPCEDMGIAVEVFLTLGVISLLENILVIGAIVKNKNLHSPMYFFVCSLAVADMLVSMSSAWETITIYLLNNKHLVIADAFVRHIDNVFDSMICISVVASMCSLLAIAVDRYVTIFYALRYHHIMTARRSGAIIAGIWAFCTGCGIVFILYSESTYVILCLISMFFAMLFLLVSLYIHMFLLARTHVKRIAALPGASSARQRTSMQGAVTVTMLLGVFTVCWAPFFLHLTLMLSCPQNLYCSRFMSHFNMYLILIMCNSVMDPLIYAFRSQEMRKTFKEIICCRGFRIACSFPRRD

[1] = biological target: T3, Muscarinic acetylcholine receptor M4 (Homo sapiens, UniProt P08173); format: cell membranes, CHO-K1, Membrane; conditions: for Ki: read-out: Ki
T3 sequence (P08173 whole entry): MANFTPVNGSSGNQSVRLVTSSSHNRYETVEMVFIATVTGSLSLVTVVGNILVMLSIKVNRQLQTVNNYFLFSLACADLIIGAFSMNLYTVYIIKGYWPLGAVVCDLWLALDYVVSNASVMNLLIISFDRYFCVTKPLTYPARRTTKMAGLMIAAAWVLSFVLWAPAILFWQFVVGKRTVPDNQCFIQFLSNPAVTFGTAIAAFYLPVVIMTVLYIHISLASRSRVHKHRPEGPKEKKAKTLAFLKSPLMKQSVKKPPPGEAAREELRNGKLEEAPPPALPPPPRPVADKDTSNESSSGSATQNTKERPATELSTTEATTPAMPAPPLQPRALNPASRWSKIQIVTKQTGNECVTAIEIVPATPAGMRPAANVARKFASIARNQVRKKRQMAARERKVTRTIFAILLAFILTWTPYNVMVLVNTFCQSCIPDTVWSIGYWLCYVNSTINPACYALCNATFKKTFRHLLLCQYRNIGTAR

Caspase-1 = biological target: T4, Caspase-1 (Homo sapiens, UniProt P29466); design: species or system Escherichia coli;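 note: Caspase-1 enzyme inhibition assay with a peptide substrate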
T4 sequence (P29466 whole entry): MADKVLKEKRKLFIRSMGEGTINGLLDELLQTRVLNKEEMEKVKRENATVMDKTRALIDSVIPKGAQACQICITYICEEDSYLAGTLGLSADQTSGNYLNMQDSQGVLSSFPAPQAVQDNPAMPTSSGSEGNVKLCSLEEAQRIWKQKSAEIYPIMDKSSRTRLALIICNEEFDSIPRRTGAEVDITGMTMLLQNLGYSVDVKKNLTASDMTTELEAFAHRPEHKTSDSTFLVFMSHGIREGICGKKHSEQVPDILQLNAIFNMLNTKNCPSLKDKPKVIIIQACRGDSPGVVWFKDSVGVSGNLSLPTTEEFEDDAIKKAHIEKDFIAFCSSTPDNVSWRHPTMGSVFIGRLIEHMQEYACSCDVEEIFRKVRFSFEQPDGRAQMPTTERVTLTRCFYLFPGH

[2] = biological target: Matrix metalloproteinase-9 (Homo sapiens, UniProt P14780); format: cell-based;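 note: inhibition of isolated MMP-9 enzyme activity toward a synthetic peptide substrate, from the DrugMatrix protease screening panel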
Matrix metalloproteinase-9, sequence (P14780 whole entry): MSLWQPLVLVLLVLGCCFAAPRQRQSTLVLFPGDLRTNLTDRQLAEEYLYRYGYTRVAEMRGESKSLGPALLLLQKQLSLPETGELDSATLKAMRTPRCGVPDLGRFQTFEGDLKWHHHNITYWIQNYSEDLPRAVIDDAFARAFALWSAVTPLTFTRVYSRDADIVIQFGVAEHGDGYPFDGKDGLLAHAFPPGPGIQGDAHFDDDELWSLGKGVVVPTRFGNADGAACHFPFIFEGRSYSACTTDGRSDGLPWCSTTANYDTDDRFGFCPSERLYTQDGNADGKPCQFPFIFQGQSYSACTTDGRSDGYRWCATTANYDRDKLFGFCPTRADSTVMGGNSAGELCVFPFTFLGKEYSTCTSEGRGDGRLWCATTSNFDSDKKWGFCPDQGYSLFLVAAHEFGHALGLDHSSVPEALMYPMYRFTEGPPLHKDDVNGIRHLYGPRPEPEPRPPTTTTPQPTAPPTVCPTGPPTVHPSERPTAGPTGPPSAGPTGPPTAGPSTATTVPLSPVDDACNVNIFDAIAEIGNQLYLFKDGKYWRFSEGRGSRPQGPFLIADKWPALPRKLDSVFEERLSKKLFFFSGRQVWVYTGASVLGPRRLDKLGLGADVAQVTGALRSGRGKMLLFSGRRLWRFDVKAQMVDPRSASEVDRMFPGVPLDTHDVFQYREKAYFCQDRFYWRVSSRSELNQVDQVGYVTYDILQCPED

[3] = biological target: Tyrosine-protein kinase Fyn (Homo sapiens, UniProt P06241); experiment: biochemical; format: cell-based, Insect cells; conditions: insect cells;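 note: enzymatic inhibition of Fyn kinase activity measured with Poly(Glu:Tyr) as the phosphorylation substrate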
Tyrosine-protein kinase Fyn, sequence (P06241 whole entry): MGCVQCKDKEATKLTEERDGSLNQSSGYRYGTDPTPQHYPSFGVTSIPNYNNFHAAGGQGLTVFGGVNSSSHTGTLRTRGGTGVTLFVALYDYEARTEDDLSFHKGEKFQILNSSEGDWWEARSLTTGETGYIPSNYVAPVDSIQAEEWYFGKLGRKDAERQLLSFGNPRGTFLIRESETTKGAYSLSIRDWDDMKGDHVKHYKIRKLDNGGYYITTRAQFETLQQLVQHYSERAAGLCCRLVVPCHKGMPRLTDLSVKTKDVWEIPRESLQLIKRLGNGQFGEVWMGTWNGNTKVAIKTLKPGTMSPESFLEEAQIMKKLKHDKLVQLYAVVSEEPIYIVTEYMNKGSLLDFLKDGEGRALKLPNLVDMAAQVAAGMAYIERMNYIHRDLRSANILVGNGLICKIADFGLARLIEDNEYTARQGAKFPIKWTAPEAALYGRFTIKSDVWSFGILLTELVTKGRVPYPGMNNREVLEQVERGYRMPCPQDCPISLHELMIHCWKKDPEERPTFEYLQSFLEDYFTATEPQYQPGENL
Note: in other assays of this panel Not Active means under 50% inhibition at 10 µM.

Structure (SMILES) | IC50 (Calcitonin receptor) | IC50 (Leukotriene C4 synthase) | IC50 (Melanocortin receptor 5) | IC50 ([1]; cho-k1) | IC50 (Caspase-1) | IC50 [2] | IC50 [3] | IC50 ([1]; read-out: IC50) | Ki [1]
CC(C)NCC(O)c1ccccc1Cl (stereo unspecified) [CLORPRENALINE] | Not Active | Not Active | Not Active | Not Active | Not Active | Not Active | Not Active | – | –
CN1CCN(C(c2ccccc2)c2ccccc2)CC1 [CYCLIZINE] | Not Active | Not Active | Not Active | – | Not Active | Not Active | Not Active | 852 nM | 119 nM
CN1C[C@@H]2C[C@H]1CN2c1cc2c(cc1F)c(=O)c(C(=O)O)cn2C1CC1 [DANOFLOXACIN] | Not Active | Not Active | Not Active | Not Active | Not Active | Not Active | Not Active | – | –
COc1cccc2c1C(=O)c1c(O)c3c(c(O)c1C2=O)C[C@@](O)(C(C)=O)C[C@@H]3O[C@H]1C[C@H](N)[C@H](O)[C@H](C)O1 [DAUNORUBICIN] | Not Active | Not Active | Not Active | Not Active | Not Active | Not Active | Not Active | – | –
O=C(O)c1cc(-c2ccc(F)cc2F)ccc1O [DIFLUNISAL] | Not Active | Not Active | Not Active | Not Active | Not Active | Not Active | Not Active | – | –
C[S+](C)[O-] [DIMETHYL SULFOXIDE] | Not Active | Not Active | Not Active | Not Active | Not Active | Not Active | Not Active | – | –
CC1=NN(c2ccccc2)C(=O)C1 [EDARAVONE] | Not Active | Not Active | Not Active | Not Active | Not Active | Not Active | Not Active | – | –
CC(C)C[C@H]1C(=O)N2CCC[C@H]2[C@]2(O)O[C@](NC(=O)[C@@H]3C=C4c5cccc6[nH]cc(c56)C[C@H]4N(C)C3)(C(C)C)C(=O)N12 [ERGOCRYPTINE] | Not Active | Not Active | Not Active | Not Active | Not Active | Not Active | Not Active | – | –
C[C@]12CC[C@@H]3c4ccc(O)cc4CC[C@H]3[C@@H]1C[C@@H](O)[C@@H]2O [ESTRIOL] | Not Active | Not Active | Not Active | Not Active | Not Active | Not Active | Not Active | – | –
C#C[C@]1(O)CC[C@H]2[C@@H]3CCC4=CC(=O)CC[C@]4(C)[C@H]3CC[C@@]21C [ETHISTERONE] | Not Active | Not Active | Not Active | Not Active | Not Active | Not Active | Not Active | – | –
CC(O)(P(=O)(O)O)P(=O)(O)O [ETIDRONIC ACID] | Not Active | Not Active | Not Active | Not Active | Not Active | Not Active | Not Active | – | –
CC(C)(C(=O)O)c1ccc(C(O)CCCN2CCC(C(O)(c3ccccc3)c3ccccc3)CC2)cc1 (stereo unspecified) [FEXOFENADINE] | Not Active | Not Active | Not Active | Not Active | Not Active | Not Active | Not Active | – | –
CN1CCN(c2c(F)cc3c(=O)c(C(=O)O)cn(CCF)c3c2F)CC1 [FLEROXACIN] | Not Active | Not Active | Not Active | Not Active | Not Active | Not Active | Not Active | – | –
O=c1[nH]c(=O)n([C@H]2C[C@H](O)[C@@H](CO)O2)cc1F [FLOXURIDINE] | Not Active | Not Active | Not Active | Not Active | Not Active | Not Active | Not Active | – | –
COC(=O)Nc1nc2cc(C(=O)c3ccc(F)cc3)ccc2[nH]1 [FLUBENDAZOLE] | Not Active | Not Active | Not Active | Not Active | Not Active | Not Active | Not Active | – | –
CC(=O)OCC(=O)[C@@]1(O)CC[C@H]2[C@@H]3CCC4=CC(=O)CC[C@]4(C)[C@@]3(F)[C@@H](O)C[C@@]21C [FLUDROCORTISONE ACETATE] | Not Active | Not Active | Not Active | Not Active | Not Active | Not Active | Not Active | – | –
CCOC(=O)c1ncn2c1CN(C)C(=O)c1cc(F)ccc1-2 [FLUMAZENIL] | Not Active | Not Active | Not Active | Not Active | Not Active | Not Active | Not Active | – | –
CC(=O)OCC(=O)[C@@]12OC(C)(C)O[C@@H]1C[C@H]1[C@@H]3C[C@H](F)C4=CC(=O)C=C[C@]4(C)[C@@]3(F)[C@@H](O)C[C@@]12C [FLUOCINONIDE] | Not Active | Not Active | Not Active | Not Active | Not Active | Not Active | Not Active | – | –
O=C(O)P(=O)(O)O [FOSCARNET] | Not Active | Not Active | Not Active | Not Active | Not Active | Not Active | Not Active | – | –
Cc1ccc(C)c(OCCCC(C)(C)C(=O)O)c1 [GEMFIBROZIL] | Not Active | Not Active | Not Active | Not Active | Not Active | Not Active | Not Active | – | –
O=c1c(-c2ccc(O)cc2)coc2cc(O)cc(O)c12 [GENISTEIN] | Not Active | Not Active | Not Active | Not Active | Not Active | Not Active | Not Active | – | –
CCC1=C(C)CN(C(=O)NCCc2ccc(S(=O)(=O)NC(=O)N[C@H]3CC[C@H](C)CC3)cc2)C1=O [GLIMEPIRIDE] | Not Active | Not Active | Not Active | Not Active | Not Active | Not Active | Not Active | – | –
Nc1cc(-c2ccncc2)c[nH]c1=O [INAMRINONE] | Not Active | Not Active | Not Active | Not Active | Not Active | Not Active | Not Active | – | –
CCCCC1=NC2(CCCC2)C(=O)N1Cc1ccc(-c2ccccc2-c2nnn[nH]2)cc1 [IRBESARTAN] | Not Active | Not Active | Not Active | Not Active | Not Active | Not Active | Not Active | – | –
CN1CCC(=C2c3ccccc3CC(=O)c3sccc32)CC1 [KETOTIFEN] | Not Active | Not Active | Not Active | – | Not Active | Not Active | Not Active | 1010 nM | 141 nM
N[C@@H](Cn1ccc(=O)c(O)c1)C(=O)O [L-MIMOSINE] | Not Active | Not Active | Not Active | Not Active | Not Active | Not Active | Not Active | – | –
C[N+](C)(C)C[C@H](O)CC(=O)[O-] [LEVOCARNITINE] | Not Active | Not Active | Not Active | Not Active | Not Active | Not Active | Not Active | – | –
